Data: ChEMBL document CHEMBL5131385, “Novel piperazine based benzamide derivatives as potential anti-glioblastoma agents inhibiting cell proliferation and cell cycle progression” (Eur J Med Chem, 2022)
The source made the active and inactive calls. The calls are words filed in the database; no cut-off is given here.

How the values were obtained:
[1] = Induction of apoptosis in human U-87 MG cells assessed as necrotic cells at 0.075 uM incubated for 72 hrs by Annexin V-FITC/PI staining based flow cytometry method (reference value: 0.21 %); type: functional, U-87MG ATCC
[2] = test system: U-87MG ATCC; assay: Antiproliferative activity against human U-87 MG cells assessed as reduction in colony number at 0.125 to 0.5 uM for 2 to 3 weeks by crystal violet staining based plate clone formation assay; type: functional, cell-based; details: dose 0.125-0.5 µM, time 2-3 weeks, DDE = dose-dependent effect
[3] = test system: U-87MG ATCC; assay: Induction of cell cycle arrest in human U-87 MG cells assessed as decrease in accumulation at G2/M phase at 0.075 to 1.20 uM measured after 72 hrs by flow cytometry; type: functional, cell-based; details: dose 0.075-1.2 µM, DDE = dose-dependent effect
[4] = test system: U-87MG ATCC; assay: Antiproliferative activity against human U-87 MG cells assessed as release of LDH in supernatant and measured after 72 hrs by microplate reader assay; type: functional, cell-based; details: DDE = dose-dependent effect
[5] = Antiproliferative activity against human U-87 MG cells assessed as inhibition of cell proliferation measured after 72 hrs by CCK8 assay; type: functional, cell-based, U-87MG ATCC
[6] = Ratio of drug level in Sprague-Dawley rat brain to plasma at 100 mg/kg, ip measured after 240 mins by LC-MS analysis; type: ADME, organism-based; details: read-out: logBB (converted)
[7] = Induction of apoptosis in human U-87 MG cells assessed as viable cells at 1.20 uM incubated for 72 hrs by Annexin V-FITC/PI staining based flow cytometry method (reference value: 96.84 %); type: functional, U-87MG ATCC; details: read-out: Activity
[8] = test system: U-87MG ATCC; assay: Antitumor activity against human U-87 MG cells xenografted in BALB/c mouse assessed assessed as inhibition of tumor cell proliferation at 10 mg/kg,ip bid for 1 month by Ki67 staining based immunohistochemical analysis; type: functional, organism-based; details: time 1.0 months
[9] = test system: U-87MG ATCC; assay: Induction of apoptosis in human U-87 MG cells assessed as formation of spindle shaped cells at 0.075 to 1.20 uM measured after 72 hrs by Giemsa staining based microscopic analysis; type: functional, cell-based; details: dose 0.075-1.2 µM
[10] = test system: U-251; assay: Induction of apoptosis in human U-251 cells assessed as morphological changes at 0.375 to 6 uM measured after 72 hrs by Giemsa staining based microscopic analysis; type: functional, cell-based; details: dose 0.375-6 µM
[11] = test system: U-87MG ATCC; assay: Downregulation of CDK6 gene expression in human U-87 MG cells at 0.075 to 1.2 uM measured after 72 hrs by western blot analysis; type: functional, cell-based; details: dose 0.075-1.2 µM
[12] = test system: U-251; assay: Downregulation of CDK4 gene expression in human U-251 cells at 0.075 to 1.2 uM measured after 72 hrs by western blot analysis; type: functional, cell-based; details: dose 0.075-1.2 µM
[13] = test system: U-87MG ATCC; assay: Antiproliferative activity against human U-87 MG cells assessed as inhibition of cell proliferation and measured upto 72 hrs by CCK8 assay; type: functional, cell-based; details: TDE = time-dependent effect
[14] = test system: U-251; assay: Antiproliferative activity against human U-251 cells assessed as release of LDH in supernatant and measured after 72 hrs by microplate reader assay; type: functional, cell-based; details: DDE = dose-dependent effect
[15] = Cmax in Sprague-Dawley rat brain at 100 mg/kg, ip and measured upto 240 mins by LC-MS analysis; type: ADME, organism-based; design: time < 240 min, dose 100 mg/kg, route ip
[16] = test system: U-251; assay: Induction of apoptosis in human U-251 cells assessed as viable cells at 0.375 uM incubated for 72 hrs by Annexin V-FITC/PI staining based flow cytometry method (reference value: 96.22 %); type: functional; details: read-out: Activity
[17] = test system: U-251; assay: Induction of apoptosis in human U-251 cells assessed as viable cells at 1.50 uM incubated for 72 hrs by Annexin V-FITC/PI staining based flow cytometry method (reference value: 96.22 %); type: functional; details: read-out: Activity
[18] = Induction of apoptosis in human U-87 MG cells assessed as viable cells at 0.075 uM incubated for 72 hrs by Annexin V-FITC/PI staining based flow cytometry method (reference value: 96.84 %); type: functional, U-87MG ATCC; details: read-out: Activity
[19] = test system: U-251; assay: Induction of apoptosis in human U-251 cells assessed as late apoptotic cells at 1.50 uM incubated for 72 hrs by Annexin V-FITC/PI staining based flow cytometry method (Rvb =1.31 %); type: functional; details: dose 1.5 µM
[20] = test system: U-251; assay: Antiproliferative activity against human U-251 cells assessed as reduction in cell proliferation at 0.075 to 1.2 uM and measured after 24 hrs by EdU incorporation based assay; type: functional; details: dose 0.075-1.2 µM, DDE = dose-dependent effect
[21] = test system: U-87MG ATCC; assay: Induction of apoptosis in human U-87 MG cells assessed as enlargement of intracellular space at 0.075 to 1.20 uM measured after 72 hrs by Giemsa staining based microscopic analysis; type: functional, cell-based; details: dose 0.075-1.2 µM
[22] = test system: U-251; assay: Induction of apoptosis in human U-251 cells assessed as formation of spindle shaped cells at 0.375 to 6 uM measured after 72 hrs by Giemsa staining based microscopic analysis; type: functional, cell-based; details: dose 0.375-6 µM
[23] = Induction of apoptosis in human U-87 MG cells assessed as necrotic cells at 1.20 uM incubated for 72 hrs by Annexin V-FITC/PI staining based flow cytometry method (reference value: 0.21 %); type: functional, U-87MG ATCC; details: dose 1.2 µM
[24] = test system: U-87MG ATCC; assay: Downregulation of CDK4 gene expression in human U-87 MG cells at 0.075 to 1.2 uM measured after 72 hrs by western blot analysis; type: functional, cell-based; details: dose 0.075-1.2 µM
[25] = Induction of apoptosis in human U-87 MG cells assessed as viable cells at 0.30 uM incubated for 72 hrs by Annexin V-FITC/PI staining based flow cytometry method (reference value: 96.84 %); type: functional, U-87MG ATCC; details: read-out: Activity
[26] = test system: U-87MG ATCC; assay: Antitumor activity against human U-87 MG cells xenografted in BALB/c mouse assessed as decrease in tumor volume at 10 mg/kg,ip bid for 1 month; type: functional, organism-based; details: time 1.0 months
[27] = AUC (0 to t) in Sprague-Dawley rat plasma at 100 mg/kg, ip and measured upto 240 mins by LC-MS analysis; type: ADME, organism-based; design: dose 100 mg/kg, time < 240 min, route ip
[28] = test system: U-251; assay: Induction of apoptosis in human U-251 cells assessed as decrease in cell size at 0.375 to 6 uM measured after 72 hrs by Giemsa staining based microscopic analysis; type: functional; details: dose 0.375-6 µM
[29] = test system: U-87MG ATCC; assay: Antiinvasive activity against human U-87 MG cells assessed as inhibition of cell invasion at 0.125 to 0.50 uM and measured after 24 hrs by transwell invasion assay; type: functional, cell-based; details: dose 0.125-0.5 µM, DDE = dose-dependent effect
[30] = test system: U-251; assay: Upregulation of p16 INK4a gene expression in human U-251 cells at 0.075 to 1.2 uM measured after 72 hrs by western blot analysis; type: functional, cell-based; details: dose 0.075-1.2 µM
[31] = Induction of apoptosis in human U-87 MG cells assessed as necrotic cells at 0.30 uM incubated for 72 hrs by Annexin V-FITC/PI staining based flow cytometry method (reference value: 0.21 %); type: functional, U-87MG ATCC; details: dose 0.3 µM
[32] = test system: U-251; assay: Antiinvasive activity against human U-251 cells assessed as inhibition of cell invasion at 0.25 to 1.0 uM measured after 24 hrs by transwell invasion assay; type: functional, cell-based; details: dose 0.25-1 µM, DDE = dose-dependent effect
[33] = test system: U-87MG ATCC; assay: Antimigratory activity in human U-87 MG cells assessed as inhibition of cell migration by measuring wound closure at 0.125 to 0.50 uM and measured after 24 hrs by transwell migration assay; type: functional, cell-based; details: dose 0.125-0.5 µM, DDE = dose-dependent effect
[34] = test system: U-87MG ATCC; assay: Upregulation of p16 INK4a gene expression in human U-87 MG cells at 0.075 to 1.2 uM measured after 72 hrs by western blot analysis; type: functional, cell-based; details: dose 0.075-1.2 µM

In the case of `COCCN1CCN(c2ccc(F)cc2C(=O)Nc2ccc(CNC(=O)OCc3cccnc3)cc2)CC1`, the Activity [1] is reported as 0.33%, the Activity [2] is reported as “Dde” and the Activity [3] is reported as “Dde”. The Activity [4] was “Dde”, the IC50 [5] was 290 nM and the Kp at 4 h [6] was 1.07. The viability at 1.2 µM [7] was 70.3%, the Activity [8] was “Active” and the Activity [9] was “Active”. The Activity [10] was “Active”, the Activity [11] was “Active” and the Activity [12] was “Active”. The Activity [13] was “Tde”, the Activity [14] was “Dde” and the Cmax [15] was 92.5 µg/mL. It also gave a viability at 0.375 µM [16] of 95.9%, a viability at 1.5 µM [17] of 93.7% and a viability at 0.075 µM [18] of 96.5%. For the same compound, the Activity [19] was 2.47%, the Activity [20] was “Dde” and the Activity [21] was “Active”. The Activity [22] was “Active”, the Activity [23] was 1.76% and the Activity [24] was “Active”. The viability at 0.3 µM [25] was 94.2%, the Activity [26] was “Active” and the AUC(0-t) at 4 h [27] was 90400 ng·h/mL. The Activity [28] was “Active”, the Activity [29] was “Dde” and the Activity [30] was “Active”. The Activity [31] was 0.34%, the Activity [32] was “Dde” and the Activity [33] was “Dde”. The Activity [34] was “Active”.
